Assay results reported in patent publication US20120258174A1, “Methods for Treating Bacterial Infection” (Innocoll Technologies Limited, priority 2011, published 2012).

Test system: organisms isolated from the infected wounds at baseline
Experiment: Gentamicin MIC testing against all isolated pathogens up to 1024 μg/mL
Assay type: cell-based
Settings: 87 of 95 organisms isolated at baseline
Protocol: Minimum inhibitory concentration (MIC) testing was performed on all isolated pathogens to determine susceptibility to systemic concentrations of levofloxacin, linezolid, vancomycin and oxacillin for gram-positive species and levofloxacin, aztreonam and piperacillin/tazobactam for gram-negative species. Definitive gentamicin MIC testing against all isolated pathogens up to 1024 μg/mL to mimic high local concentrations were also performed.

## CN[C@@H]1[C@@H](O)C(O[C@@H]2[C@@H](O)[C@H](O[C@H]3O[C@H]([C@@H](C)NC)CC[C@H]3N)[C@@H](N)C[C@H]2N)OC[C@]1(C)O (stereo partly drawn) [gentamicin, (3R,4R,5R)-2-{[(1S,2S,3R,4S,6R)-4,6-diamino-3-{[(2R,3R,6S)-3-amino-6-[(1R)-1-(methylamino)ethyl]oxan-2-yl]oxy}-2-hydroxycyclohexyl]oxy}-5-methyl-4-(methylamino)oxane-3,5-diol]
  organisms whose gentamicin MIC would be exceeded by a local concentration of up to 1000 μg/mL: 92%
